Laboratory results reported in patent US10208033B2, “β-carboline, dihydro-β-carboline and tetrahydro-β-carboline alkaloid derivatives and preparation methods same and use in aspects of preventing and treating plant viruses, fungicides and insecticides” (NANKAI UNIVERSITY, priority 2013, dated 2019).

Key:
[1] = tested on: tobacco mosaic virus (TMV); test: Anti-TMV in vitro effect (half-leaf soaking); type: cell-based, tobacco mosaic virus (host Nicotiana tabacum L.cv.Xanthi NN); conditions: Tobacco mosaic virus, read-out: Relative inhibition rate (%) In vitro activity
[2] = tested on: tobacco mosaic virus (TMV); test: Anti-TMV in vivo inactivation; design: species or system tobacco mosaic virus (host Nicotiana tabacum L.cv.Xanthi NN); conditions: Tobacco mosaic virus, read-out: Relative inhibition rate (%) In vivo inactivation
[3] = tested on: tobacco mosaic virus (TMV); test: Anti-TMV in vivo therapeutic effect; design: species or system tobacco mosaic virus (host Nicotiana tabacum L.cv.Xanthi NN); conditions: Tobacco mosaic virus, read-out: Relative inhibition rate (%) In vivo therapy
[4] = tested on: tobacco mosaic virus (TMV); test: Anti-TMV in vivo protective effect; design: species or system tobacco mosaic virus (host Nicotiana tabacum L.cv.Xanthi NN); conditions: Tobacco mosaic virus, read-out: Relative inhibition rate (%) In vivo protection
[5] = tested on: cucumber fusarium wilt; test: Fungicidal (bactericidal) activity in vitro, PDA colony diameter; type: cell-based; conditions: Fusarium, 96 h; 50 mg/kg
[6] = tested on: Cercospora arachidicola; test: as above; type: cell-based; conditions: Mycosphaerella arachidis, 96 h; 50 mg/kg
[7] = tested on: Macrophoma kawatsukai; test: as above; type: cell-based; conditions: 50 mg/kg
[8] = tested on: Alternaria solani; test: as above; type: cell-based; conditions: Alternaria solani, 96 h; 50 mg/kg
[9] = tested on: Fusarium graminearumt; test: microbe, parasite or virus in culture; type: cell-based; conditions: Fusarium, 96 h, read-out: Bactericidal activity (%) Fusarium graminearumt
[10] = tested on: potato late blight; test: microbe, parasite or virus in culture; type: cell-based; conditions: Phytophthora infestans, 96 h, read-out: Bactericidal activity (%) potato late blight
[11] = tested on: Sclerotinia scleotiorum; test: Fungicidal (bactericidal) activity in vitro, PDA colony diameter; type: cell-based; conditions: Sclerotinia, 96 h; 50 mg/kg
[12] = tested on: Botrytis cinerea; test: as above; type: cell-based; conditions: Botrytis cinerea, 96 h; 50 mg/kg
[13] = tested on: Rhizoctonia solani; test: as above; type: cell-based; conditions: Rhizoctonia solani, 96 h; 50 mg/kg
[14] = tested on: Phytophthora capsici; test: as above; type: cell-based; conditions: Phytophthora capsici, 96 h; 50 mg/kg
[15] = tested on: Fusarium fujikuroi; test: as above; type: cell-based; conditions: Fusarium fujikuroi, 96 h; 50 mg/kg
[16] = tested on: Rhizoctonia cereali; test: as above; type: cell-based; conditions: Rhizoctonia, 96 h; 50 mg/kg
[17] = tested on: Bipolaria maydis; test: organism not typed; type: cell-based; conditions: read-out: Bactericidal activity (%) Bipolaria maydis
[18] = tested on: Colletotrichum orbiculare; test: Fungicidal (bactericidal) activity in vitro, PDA colony diameter; type: cell-based; conditions: Colletotrichum orbiculare, 96 h; 50 mg/kg
[19] = tested on: armyworms; type: in vivo; conditions: concentration 600 mg/kg
[20] = tested on: cotton bollworms; test: whole plant or invertebrate; conditions: Helicoverpa armigera, in Gossypium hirsutum, read-out: Cotton bollworm Mortality (%)
Method: Experimental method of cotton bollworms: feed and drug mixing method: measure 3 mL of prepared solution and add it to about 27 g of newly prepared feed, thereby obtaining needed concentration through dilution by 10 times.

[21] = tested on: mosquito larvae; test: whole plant or invertebrate; conditions: for mortality at 5 mg/kg / mortality at 10 mg/kg: Culex pipiens, 24 h, read-out: Mosquito larvae Mortality (%)
Summary of the method: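 Early fourth-instar Culex pipiens pallens larvae from an indoor colony, 10 per beaker, exposed to test compound at 5 ppm in water, diluted from a 1000 ppm acetone mother solution. Blank: water containing 0.5 mL test solvent.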

[22] = tested on: corn borers; test: whole plant or invertebrate; conditions: read-out: Corn borer Mortality (%)

Row | SMILES | inhibition of growth at 50 mg/kg [5] | inhibition of growth at 50 mg/kg [6] | inhibition at 50 mg/kg [7] | inhibition of growth at 50 mg/kg [8] | inhibition of growth at 50 mg/kg [9] | inhibition of growth at 50 mg/kg [10] | inhibition of growth at 50 mg/kg [11] | inhibition of growth at 50 mg/kg [12] | inhibition of growth at 50 mg/kg [13] | inhibition of growth at 50 mg/kg [14] | inhibition of growth at 50 mg/kg [15] | inhibition of growth at 50 mg/kg [16] | inhibition at 50 mg/kg [17] | inhibition of growth at 50 mg/kg [18] | Armyworm Mortality (%) [19] | mortality at 600 mg/kg [20] | mortality at 5 mg/kg [21] | mortality at 10 mg/kg [21] | mortality at 600 mg/kg [22] | inhibition at 100 µg/mL ([1]; treatment dose 100 μg/mL) | further results
1 | Cc1nccc2c1[nH]c1cc(O)ccc12 [Harmol] | 26.9% | 46.2% | 23.8% | 26.3% | 23.8% | 22.7% | 5.9% | 9.1% | 50% | 25% | 28.6% | 42.1% | 31.8% | 46.4% | 50% | 20% | 30% | 100% | 45% |  | inhibition at 100 µg/mL [1]: 0%; inhibition at 500 µg/mL [1]: 32.6%; inhibition at 100 µg/mL [2]: 0%; inhibition at 500 µg/mL [2]: 35.1%; inhibition at 100 µg/mL [3]: 0%; inhibition at 500 µg/mL [3]: 30%; inhibition at 100 µg/mL [4]: 9.5%; inhibition at 500 µg/mL [4]: 36.7%
2 | Cc1nccc2c1[nH]c1ccc([N+](=O)[O-])cc12 [Ia-3] | 23.8% | 7.1% | 35.3% | 33.3% | 50% | 25% | 56% | 54.6% | 10.7% | 36.4% | 42.9% | 59.4% | 31.6% | 23.8% | 50% | 35% | 60% | 100% | 50% | 0% | inhibition at 500 µg/mL ([1]; treatment dose 500 μg/mL): 15.7%; inhibition at 100 µg/mL ([2]; treatment dose 100 μg/mL): 0%; inhibition at 500 µg/mL ([2]; treatment dose 500 μg/mL): 21.5%; inhibition at 100 µg/mL ([3]; treatment dose 100 μg/mL): 0%; inhibition at 500 µg/mL ([3]; treatment dose 500 μg/mL): 18.5%; inhibition at 100 µg/mL ([4]; treatment dose 100 μg/mL): 0%; inhibition at 500 µg/mL ([4]; treatment dose 500 μg/mL): 26.1%; activity against culex pipiens larvae (in words) ([21]; at 5 mg/kg): still show high activity
3 | Cc1nccc2c1[nH]c1c([N+](=O)[O-])cccc12 [Ia-4] | 38.5% | 53.9% | 35.7% | 15.8% | 42.9% | 27.3% | 29.4% | 18.2% | 42.1% | 9.4% | 21.4% | 50% | 36.4% | 42.9% | 10% | 10% |  | 30% | 5% | 0% | inhibition at 500 µg/mL ([1]; treatment dose 500 μg/mL): 30%; inhibition at 100 µg/mL ([2]; treatment dose 100 μg/mL): 10.5%; inhibition at 500 µg/mL ([2]; treatment dose 500 μg/mL): 36.4%; inhibition at 100 µg/mL ([3]; treatment dose 100 μg/mL): 0%; inhibition at 500 µg/mL ([3]; treatment dose 500 μg/mL): 33.3%; inhibition at 100 µg/mL ([4]; treatment dose 100 μg/mL): 5.8%; inhibition at 500 µg/mL ([4]; treatment dose 500 μg/mL): 30.1%
